Results reported in ChEMBL document CHEMBL1154925 (Bioorg Med Chem Lett, 2010).
The source made the active and inactive calls. The calls are words filed in the database; no cut-off is given here.

Legend:
[1] = system: HEK293; assay: cells; settings: Homo sapiens, HEK293, 72 h
[2] = system: Raji; assay: cells; settings: Homo sapiens, 72 h
[3] = target: T1, Prostaglandin G/H synthase 2 (Mus musculus, UniProt Q05769)
T1 sequence (Q05769 whole entry): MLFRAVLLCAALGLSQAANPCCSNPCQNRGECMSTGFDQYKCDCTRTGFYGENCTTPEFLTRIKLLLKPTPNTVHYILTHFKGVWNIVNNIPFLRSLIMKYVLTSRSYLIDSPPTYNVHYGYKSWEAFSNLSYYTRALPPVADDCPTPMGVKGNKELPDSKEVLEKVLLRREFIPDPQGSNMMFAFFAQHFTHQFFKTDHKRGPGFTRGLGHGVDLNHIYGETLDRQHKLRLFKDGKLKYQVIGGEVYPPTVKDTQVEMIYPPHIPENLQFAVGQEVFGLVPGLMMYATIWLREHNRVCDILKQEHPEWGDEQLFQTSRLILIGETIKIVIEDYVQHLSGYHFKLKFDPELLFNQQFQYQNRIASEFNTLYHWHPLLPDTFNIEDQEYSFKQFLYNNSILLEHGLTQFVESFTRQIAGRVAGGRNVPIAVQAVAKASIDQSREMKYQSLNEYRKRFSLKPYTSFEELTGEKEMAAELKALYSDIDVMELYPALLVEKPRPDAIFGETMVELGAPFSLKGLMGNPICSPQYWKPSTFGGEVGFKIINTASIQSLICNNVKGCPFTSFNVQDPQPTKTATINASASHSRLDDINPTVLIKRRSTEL

[4] = target: T2, Prostaglandin G/H synthase 1 (Ovis aries, UniProt P05979)
T2 sequence (P05979 whole entry): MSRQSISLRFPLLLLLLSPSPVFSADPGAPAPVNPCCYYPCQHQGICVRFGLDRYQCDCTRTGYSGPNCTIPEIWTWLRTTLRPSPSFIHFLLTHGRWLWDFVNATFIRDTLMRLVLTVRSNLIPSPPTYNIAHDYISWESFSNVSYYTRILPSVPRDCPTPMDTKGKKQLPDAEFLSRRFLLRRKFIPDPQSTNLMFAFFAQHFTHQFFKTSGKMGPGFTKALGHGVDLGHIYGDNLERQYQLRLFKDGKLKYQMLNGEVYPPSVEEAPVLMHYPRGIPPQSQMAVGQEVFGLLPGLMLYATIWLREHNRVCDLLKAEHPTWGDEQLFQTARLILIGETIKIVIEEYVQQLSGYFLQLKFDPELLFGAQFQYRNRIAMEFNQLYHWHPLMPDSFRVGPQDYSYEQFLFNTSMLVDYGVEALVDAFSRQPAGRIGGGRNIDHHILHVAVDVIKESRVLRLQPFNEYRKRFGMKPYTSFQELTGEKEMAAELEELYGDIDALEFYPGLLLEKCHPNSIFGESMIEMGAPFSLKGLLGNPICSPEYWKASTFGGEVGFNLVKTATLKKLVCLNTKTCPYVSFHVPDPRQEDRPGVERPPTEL

[5] = Half life in stimulated gastric fluid of pH 1.0; settings: simulated gastric fluid
[6] = target: T3, Prostaglandin G/H synthase 2 (Homo sapiens) (UniProt P35354); assay: Inhibition of human COX2
T3 sequence (whole entry): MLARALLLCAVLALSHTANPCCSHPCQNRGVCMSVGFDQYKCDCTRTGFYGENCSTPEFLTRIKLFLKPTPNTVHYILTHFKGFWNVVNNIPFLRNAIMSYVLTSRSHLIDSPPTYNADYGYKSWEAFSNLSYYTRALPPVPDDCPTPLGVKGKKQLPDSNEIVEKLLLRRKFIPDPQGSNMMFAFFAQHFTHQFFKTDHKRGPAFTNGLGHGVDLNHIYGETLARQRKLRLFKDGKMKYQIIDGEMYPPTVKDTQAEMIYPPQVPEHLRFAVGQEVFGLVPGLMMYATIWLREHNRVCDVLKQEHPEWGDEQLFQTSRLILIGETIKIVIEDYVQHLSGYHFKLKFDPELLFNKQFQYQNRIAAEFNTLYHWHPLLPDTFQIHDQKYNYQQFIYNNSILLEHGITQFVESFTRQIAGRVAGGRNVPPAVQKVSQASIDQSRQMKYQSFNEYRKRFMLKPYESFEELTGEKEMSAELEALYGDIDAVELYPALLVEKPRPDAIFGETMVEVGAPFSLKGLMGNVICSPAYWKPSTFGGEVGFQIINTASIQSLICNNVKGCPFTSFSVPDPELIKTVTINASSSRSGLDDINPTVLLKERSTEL

[7] = target: Prostaglandin G/H synthase 1 (Homo sapiens) (UniProt P23219); assay: Inhibition of human COX1
Prostaglandin G/H synthase 1 (Homo sapiens), sequence (P23219 whole entry): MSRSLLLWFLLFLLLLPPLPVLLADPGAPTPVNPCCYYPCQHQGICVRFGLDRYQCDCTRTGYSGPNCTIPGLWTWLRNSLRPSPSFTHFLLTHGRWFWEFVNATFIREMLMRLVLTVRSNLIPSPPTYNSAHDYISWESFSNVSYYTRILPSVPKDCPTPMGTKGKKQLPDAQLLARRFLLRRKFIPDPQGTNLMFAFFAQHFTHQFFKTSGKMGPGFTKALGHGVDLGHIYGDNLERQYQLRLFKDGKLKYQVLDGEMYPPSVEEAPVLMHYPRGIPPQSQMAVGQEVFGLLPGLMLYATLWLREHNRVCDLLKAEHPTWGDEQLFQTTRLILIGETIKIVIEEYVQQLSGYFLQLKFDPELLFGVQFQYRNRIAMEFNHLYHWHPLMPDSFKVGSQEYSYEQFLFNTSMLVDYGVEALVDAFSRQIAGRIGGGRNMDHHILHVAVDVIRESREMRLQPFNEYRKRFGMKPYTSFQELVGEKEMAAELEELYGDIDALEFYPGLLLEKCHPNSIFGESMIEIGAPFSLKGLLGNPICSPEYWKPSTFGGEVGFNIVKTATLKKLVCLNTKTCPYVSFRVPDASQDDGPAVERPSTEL

[8] = system: Trypanosoma brucei brucei; settings: 1 uM
[9] = system: Trypanosoma brucei brucei; settings: 100 nM
[10] = system: Trypanosoma brucei brucei; assay: microbe, parasite or virus in culture; settings: 48 h
[11] = system: Trypanosoma brucei brucei; settings: 1 uM; remark: listed apart in the source
[12] = system: Trypanosoma brucei brucei; settings: 100 nM; remark: listed apart in the source

SMILES	IC50 [1] [nM]	IC50 [2] [nM]	IC50 [3] [nM]	IC50 [4] [nM]	half-life [5] [h]	inhibition [6]	inhibition [7]	inhibition [8]	inhibition [9]	IC50 [10] [nM]	inhibition [11]	inhibition [12]
COc1ccc2c(c1)c(CCNC(=O)CCC(=O)O[C@@H]1c3cc4c(cc3[C@H](c3cc(OC)c(OC)c(OC)c3)[C@@H]3C(=O)OC[C@H]31)OCO4)c(C)n2Cc1ccc(Br)cc1	240	420	> 4000	> 4000	> 24	–	–	–	–	–	–	–
COc1cc([C@H]2c3cc4c(cc3[C@@H](OC(=O)CCC(=O)NC[C@H](C)c3ccccc3)[C@@H]3COC(=O)[C@@H]23)OCO4)cc(OC)c1OC	360	540	> 4000	> 4000	> 24	–	–	–	–	–	–	–
COc1ccc2c(c1)c(CC(=O)N1CCN(C(=O)CCC(=O)O[C@@H]3c4cc5c(cc4[C@H](c4cc(OC)c(OC)c(OC)c4)[C@@H]4C(=O)OC[C@H]43)OCO5)CC1)c(C)n2C(=O)c1ccc(Cl)cc1	520	510	–	–	> 24	inactive	inactive	–	–	–	–	–
COc1cc([C@@H]2c3cc4c(cc3[C@H](O)[C@H]3COC(=O)[C@H]23)OCO4)cc(OC)c1OC [PODOFILOX]	17	18	> 4000	> 4000	> 24	–	–	–	–	–	–	–
COc1cc([C@@H]2c3cc4c(cc3[C@H](OC(=O)CCC(=O)O)[C@H]3COC(=O)[C@H]23)OCO4)cc(OC)c1OC [SUCCINYLPODOPHYLLOTOXIN]	76	100	> 4000	> 4000	> 24	–	–	–	–	–	–	–
COc1ccc2c(c1)c(CC(=O)NCCOC(=O)CCC(=O)O[C@@H]1c3cc4c(cc3[C@H](c3cc(OC)c(OC)c(OC)c3)[C@@H]3C(=O)OC[C@H]31)OCO4)c(C)n2C(=O)c1ccc(Cl)cc1	860	1300	–	–	> 24	inactive	inactive	–	–	–	–	–
COc1cc([C@H]2c3cc4c(cc3[C@@H](OC(=O)CCC(=O)NCc3ccc(NS(=O)(=O)c5cccc6c(N(C)C)cccc56)cc3)[C@@H]3COC(=O)[C@@H]23)OCO4)cc(OC)c1OC	–	37	> 4000	> 4000	> 24	–	–	–	–	–	–	–
COc1ccc(CCNC(=O)CCC(=O)O[C@@H]2c3cc4c(cc3[C@H](c3cc(OC)c(OC)c(OC)c3)[C@@H]3C(=O)OC[C@H]32)OCO4)cc1	79	130	> 4000	> 4000	> 24	–	–	–	–	–	–	–
COc1cc([C@H]2c3cc4c(cc3[C@@H](OC(=O)CCC(=O)NCCCCNC(=O)[C@@H](C)c3cccc(C(=O)c5ccccc5)c3)[C@@H]3COC(=O)[C@@H]23)OCO4)cc(OC)c1OC	> 50000	> 50000	> 4000	> 4000	> 24	–	–	–	–	–	–	–
COc1ccc2c(c1)c(CC(=O)NCCCCNC(=O)CCC(=O)O[C@@H]1c3cc4c(cc3[C@H](c3cc(OC)c(OC)c(OC)c3)[C@@H]3C(=O)OC[C@H]31)OCO4)c(C)n2C(=O)c1ccc(Cl)cc1	160	120	295	–	> 24	inactive	inactive	Active	Active	–	–	–
COc1cc([C@H]2c3cc4c(cc3[C@@H](OC(=O)CCC(=O)NCCCCNC(=O)[C@@H](C)c3ccc(CC(C)C)cc3)[C@@H]3COC(=O)[C@@H]23)OCO4)cc(OC)c1OC	160	170	> 4000	> 4000	> 24	–	–	–	–	–	–	–
COc1cc([C@H]2c3cc4c(cc3[C@@H](OC(=O)CCC(=O)NCCCCNC(=O)[C@@H](C)c3ccc(-c5ccccc5)c(F)c3)[C@@H]3COC(=O)[C@@H]23)OCO4)cc(OC)c1OC	180	180	> 4000	> 4000	> 24	–	–	–	–	–	–	–
COc1ccc2cc([C@@H](C)C(=O)NCCCCNC(=O)CCC(=O)O[C@@H]3c4cc5c(cc4[C@H](c4cc(OC)c(OC)c(OC)c4)[C@@H]4C(=O)OC[C@H]43)OCO5)ccc2c1	330	430	> 4000	> 4000	> 24	–	–	–	–	–	–	–
COc1ccc2c(c1)c(CC(=O)NCCCCCNC(=O)CCC(=O)O[C@@H]1c3cc4c(cc3[C@H](c3cc(OC)c(OC)c(OC)c3)[C@@H]3C(=O)OC[C@H]31)OCO4)c(C)n2C(=O)c1ccc(Cl)cc1	–	280	–	> 4000	> 24	inactive	inactive	–	–	–	–	–
COc1ccc2c(c1)c(CC(=O)O)c(C)n2C(=O)c1ccc(Cl)cc1 [INDOMETHACIN]	> 50000	> 50000	–	–	> 24	–	–	–	–	> 50000	–	–
CO[C@@H](/C(C)=C/C=C/C(C)=C/c1coc(C)n1)[C@@H](C)[C@@H]1C[C@H](O)[C@@]2(C)O[C@@H]2/C=C/[C@@H](C)[C@H]2C[C@H](CC(=O)O2)C[C@@H]2O[C@H]2C(=O)O1 [RHIZOXIN]	350	340	–	–	> 24	–	–	–	–	–	Active	Active
